Measurements reported in US10975119B2, “Selective cysteine protease inhibitors and uses thereof” (Genesis Technologies Limited, priority 2011, dated 2021).
pIC50: −log10 of the molar value. Counter-ions that a name gives are not always drawn. Like-named read-outs stand apart in the source and are kept apart here.

Legend:
Type in all cases: biochemical
[1] = biological target: T1, Caspase-6 (Homo sapiens, UniProt P55212); assay: Caspase-6 inhibitor screening assay (BioVision kit, VEID-AFC); details: for inhibition at 10 µM: read-out: % Inhibition at 10 uM Casp6; for inhibition at 100 µM: read-out: % Inhibition at 100 uM Casp6; for pIC50: read-out: IC50 Casp6
T1 construct: mixing the compounds with the respective active caspases; purchased BioVision K156-100
T1 sequence (P55212 24-179 limits assumed): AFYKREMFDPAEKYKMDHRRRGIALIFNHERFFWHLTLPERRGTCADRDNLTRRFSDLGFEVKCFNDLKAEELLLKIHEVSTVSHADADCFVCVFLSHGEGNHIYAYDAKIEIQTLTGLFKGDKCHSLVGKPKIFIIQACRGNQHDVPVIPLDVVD
T1 sequence (P55212 194-293 limits assumed): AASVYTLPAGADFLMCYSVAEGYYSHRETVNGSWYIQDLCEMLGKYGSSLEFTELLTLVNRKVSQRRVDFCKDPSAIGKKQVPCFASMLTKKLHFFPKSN
Protocol: (§1) The efficacy of an array of compounds as an inhibitor of the activity of Caspases 1 through 10 were assessed by using the respective Caspase Inhibitor Drug Screening Kits (Caspase-1 Catalog #: K151-100, Caspase-2 Catalog #: K152-100, Caspase-3 Catalog #: K153-100, Caspase-4 Catalog #: K154-100, Caspase-5 Catalog #: K155-100, Caspase-6 Catalog #: K156-100, Caspase-7 Catalog #: K157-100, Caspase-8 Catalog #: K158-100, Caspase-9 Catalog #: K159-100, Caspase-10 Catalog #: K160-100, BioVision) following the instructions of the manufacturer. […] Active caspases cleaved their respective synthetic substrates to release free AFC, which was then quantified by fluorometry.
(§2) Briefly, the compounds were first tested at 2 concentrations (10 uM and 100 uM final) to determine if there is a hit. […] Each condition was tested in duplicates. […] For some samples, a smaller range of concentrations was tested depending on the % Inhibition results at 10 uM and 100 uM. Results were summarized in Tables 2, 3, and 4 herein after. Table 2 represents the IC50 values (uM) of the test compounds as inhibitors of the activity of the various caspases.
(§3) (*) RFU (no inhibitor control)—RFU (compound at a specific concentration)
(§4) RFU (no inhibitor control)

[2] = tested on: Caspases 1 through 10; assay: Caspase-1 to Caspase-10 inhibitor screening, profile across the panel
Protocol: as §1, §2, §3, §4

[3] = biological target: T2, Caspase-9 (Homo sapiens, UniProt P55211); assay: Caspase-9 inhibitor screening assay (BioVision kit, LEHD-AFC); details: for inhibition at 10 µM: read-out: % Inhibition at 10 uM Casp9; for inhibition at 100 µM: read-out: % Inhibition at 100 uM Casp9
T2 construct: purchased BioVision K159-100
T2 sequence (P55211 1-315 limits assumed): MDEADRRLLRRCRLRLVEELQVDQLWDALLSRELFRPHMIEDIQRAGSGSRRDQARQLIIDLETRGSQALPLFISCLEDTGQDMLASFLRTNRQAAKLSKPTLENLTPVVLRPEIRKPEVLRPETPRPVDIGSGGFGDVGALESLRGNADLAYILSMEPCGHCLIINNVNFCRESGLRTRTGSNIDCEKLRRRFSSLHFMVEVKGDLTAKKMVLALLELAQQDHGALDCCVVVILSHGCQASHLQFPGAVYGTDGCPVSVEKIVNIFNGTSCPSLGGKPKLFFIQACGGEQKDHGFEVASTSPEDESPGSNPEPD
T2 sequence (P55211 331-416 limits assumed): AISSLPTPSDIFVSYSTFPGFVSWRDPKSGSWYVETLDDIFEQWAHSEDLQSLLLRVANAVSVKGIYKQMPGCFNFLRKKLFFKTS
Protocol: as §1, §2, §3, §4

[4] = biological target: T3, Caspase-1 (Homo sapiens, UniProt P29466); assay: Caspase-1 inhibitor screening assay (BioVision kit, YVAD-AFC); details: for inhibition at 10 µM: read-out: % Inhibition at 10 uM Casp1; for inhibition at 100 µM: read-out: % Inhibition at 100 uM Casp1
T3 construct: mixing the compounds with the respective active caspases; purchased BioVision K151-100
T3 sequence (P29466 120-297 limits assumed): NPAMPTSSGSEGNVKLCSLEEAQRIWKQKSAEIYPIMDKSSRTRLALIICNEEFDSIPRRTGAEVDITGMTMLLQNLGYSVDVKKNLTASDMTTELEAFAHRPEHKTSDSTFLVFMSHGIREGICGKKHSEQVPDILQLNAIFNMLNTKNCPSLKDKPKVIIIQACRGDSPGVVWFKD
T3 sequence (P29466 317-404 limits assumed): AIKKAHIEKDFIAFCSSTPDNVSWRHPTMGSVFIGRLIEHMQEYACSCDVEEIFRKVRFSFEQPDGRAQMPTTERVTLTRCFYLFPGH
Protocol: as §1, §2, §3, §4

[5] = biological target: T4, Caspase-5 (Homo sapiens, UniProt P51878); assay: Caspase-5 inhibitor screening assay (BioVision kit, WEHD-AFC); details: for inhibition at 10 µM: read-out: % Inhibition at 10 uM Casp5; for inhibition at 100 µM: read-out: % Inhibition at 100 uM Casp5; for pIC50: read-out: IC50 Casp5
T4 construct: mixing the compounds with the respective active caspases; purchased BioVision K155-100
T4 sequence (P51878 137-327 limits assumed): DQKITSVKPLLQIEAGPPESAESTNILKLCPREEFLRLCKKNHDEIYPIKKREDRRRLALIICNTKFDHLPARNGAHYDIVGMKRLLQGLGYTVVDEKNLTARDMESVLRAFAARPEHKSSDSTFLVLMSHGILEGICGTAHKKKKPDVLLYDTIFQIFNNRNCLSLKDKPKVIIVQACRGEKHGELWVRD
T4 sequence (P51878 347-434 limits assumed): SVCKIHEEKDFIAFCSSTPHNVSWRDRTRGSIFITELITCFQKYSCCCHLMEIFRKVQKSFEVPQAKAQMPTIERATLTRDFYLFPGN
Protocol: as §1, §2, §3, §4

[6] = read-out: potency (IC50) against caspase-9
[7] = read-out: potency (IC50) against caspase-1

Row | SMILES | inhibition at 10 µM [1] | inhibition at 100 µM [1] | inhibition at 10 µM ([3]; 10 uM) | inhibition at 100 µM ([3]; 100 uM) | pIC50 ([3]; read-out: IC50 Casp9) | pIC50 [3, 6] | inhibition at 10 µM [4] | inhibition at 100 µM [4] | pIC50 [4, 7] | inhibition at 10 µM [5] | inhibition at 100 µM [5] | pIC50 [1] | pIC50 ([4]; read-out: IC50 Casp1) | pIC50 [5] | % Inhibition at 100 uM Casp9 ([3]; 100 uM) | inhibition profile across caspases, in words [2] | inhibition at 10 µM [3] | inhibition at 100 µM [3]
1 | CC(C)(C)[C@H](NC(=O)[C@H](CC(=O)O)NC(=O)OCc1ccccc1)C(=O)N1CCCC1C(=O)N[C@H](/C=C/S(C)(=O)=O)CC(=O)O (stereo in doubt) [Compound 26, Z-Asp-t-Leu-Pro-Asp-methyl vinyl sulfone] | 0% | 7% | 95% | 100% | 6.18 | 6.18 | 69% | 99% |  | 50% | 91% | < 4.00 | 5.37 | 5.01 |  | high inhibitory activity towards the effector (executioner) Caspases: Caspase-3 and -7 |  | 
2 | CC(C)(C)[C@@H](NC(=O)[C@H](CC(=O)O)NC(=O)OCc1ccccc1)C(=O)N1CC[C@@H]1C(=O)N[C@H](/C=C/S(C)(=O)=O)CC(=O)O [Compound 32, Z-Asp-t-Leu-(Azetidine-2-carbonyl)-Asp-methyl vinyl sulfone] | 0% | 1% | 91% | 100% | 5.95 |  | 44% | 86% |  | 23% | 77% | < 4.00 | 4.88 | 4.45 |  |  |  | 
3 | CCC(C)[C@H](NC(=O)[C@H](CCC(=O)O)NC(=O)[C@@H](NC(=O)OCc1ccccc1)C(C)C)C(=O)N[C@H](/C=C/S(C)(=O)=O)CC(=O)O (stereo partly drawn) [Compound 38, Z-Val-Glu-Ile-Asp-methyl vinyl sulfone] | 88% | 96% | 82% | 97% | 6.10 |  | 81% | 97% |  | 32% | 81% | 6.22 | 5.57 | 4.71 |  |  |  | 
4 | CS(=O)(=O)/C(Cl)=C/[C@@H](N)CC(=O)O [Compound 4, Asp achlorovinyl methyl vinyl sulfone, Tosyl Salt] | 0% | 0% |  |  | < 4.00 |  | 0% | 0% |  | 0% | 1% | < 4.00 | < 4.00 | < 4.00 |  |  | 0% | 0%
5 | CC(C)[C@H](NC(=O)OCc1ccccc1)C(=O)N[C@H](/C=C(\Cl)S(C)(=O)=O)CC(=O)O [Compound 2, Cbz-Val-Asp achlorovinyl methyl vinyl sulfone] | 1% | 19% | 16% | 66% | 4.29 |  | 0% | 5% |  | 10% | 12% | < 4.00 | < 4.00 | < 4.00 | 70% |  |  | 
6 | CS(=O)(=O)/C=C/[C@H](CC(=O)O)NC(=O)[C@H]1CCC(=O)N1 [Compound 24, (2-Pyrrolidinone-5-carbonyl)-Asp methyl vinyl sulfone] | 0% | 0% | 0% | 0% | < 4.00 |  | 3% | 10% |  | 0% | 0% | < 4.00 | < 4.00 | < 4.00 |  |  |  | 
7 | CC(C)(C)[C@H](NC(=O)c1ccc2ncccc2c1)C(=O)N1CCCC1C(=O)N[C@H](/C=C/S(C)(=O)=O)CC(=O)O (stereo in doubt) [Compound 10, Quinoline-6-carbonyl-t-Leu-Pro-Asp methyl vinyl sulfone] | 0% | 0% | 76% | 98% | 5.49 |  | 90% | 100% |  | 78% | 98% | < 4.00 | 6.92 | 5.52 |  |  |  | 
8 | CS(=O)(=O)/C=C/[C@H](CC(=O)O)NC(=O)C1CCCN1C(=O)[C@@H](NC(=O)[C@H](CC(=O)O)NC(=O)OCc1ccccc1)C1CC1 (stereo in doubt) [Compound 28, Z-Asp-Cyclopropylglycine-Pro-Asp-methyl vinyl sulfone] | 2% | 4% | 54% | 93% | 5.04 |  | 49% | 90% |  | 14% | 69% | < 4.00 | 4.97 | 4.34 |  |  |  | 

Further lines, with some results ahead:

Row | inhibition at 10 µM [1] | inhibition at 100 µM [1] | inhibition at 10 µM ([3]; 10 uM) | inhibition at 100 µM ([3]; 100 uM) | pIC50 ([3]; read-out: IC50 Casp9) | pIC50 [3, 6] | inhibition at 10 µM [4] | inhibition at 100 µM [4] | pIC50 [4, 7] | inhibition at 10 µM [5] | inhibition at 100 µM [5] | pIC50 [1] | pIC50 ([4]; read-out: IC50 Casp1) | pIC50 [5] | % Inhibition at 100 uM Casp9 ([3]; 100 uM) | SMILES | inhibition profile across caspases, in words [2] | inhibition at 10 µM [3] | inhibition at 100 µM [3]
9 | 13% | 10% | 92% | 92% | 6.00 | 6.00 | 84% | 96% | 5.98 | 41% | 41% |  |  |  |  | CCOC(=O)/C=C/[C@H](CC(=O)O)NC(=O)[C@@H](NC(=O)[C@@H](NC(=O)[C@H](CC(=O)O)NC(=O)OCc1ccccc1)c1ccccc1)C(C)C [Compound 105, Z-Asp-Phg-Val-Asp Ethyl Vinyl Ester] | high inhibitory activity towards the effector (executioner) Caspases: Caspase-3 and -7 |  | 
10 |  |  |  |  | < 4.00 |  |  |  |  |  |  | 6.32 | 6.00 | 5.07 |  | CCOC(=O)/C=C/[C@H](CC(=O)O)NC(=O)[C@@H](NC(=O)[C@H](CCC(=O)O)NC(=O)[C@@H](NC(=O)OCc1ccccc1)C(C)C)c1ccccc1 [Compound 126, Z-Val-Glu-Phg-Asp-Ethyl Vinyl ester] |  |  | 
11 | 7% | 51% | 87% | 99% | 5.76 |  | 99% | 100% | 7.59 | 95% | 100% | ~4.00 |  | 6.12 |  | CC(C)[C@H](NC(=O)[C@H](CCC(=O)O)NC(=O)[C@H](Cc1c[nH]c2ccccc12)NC(=O)OCc1ccccc1)C(=O)N[C@H](/C=C/S(C)(=O)=O)CC(=O)O [Compound 40, Z-Trp-Glu-Val-Asp-methyl vinyl sulfone] |  |  | 
